Consider one compound from US7883687B2, “15O-labeled monosaccharide and producing method thereof” (Astellas Pharma Inc., priority 2004, dated 2011).

This data set in a line: PET imaging in rat (Planar Positron Imaging System). To be noted: injected from tail vein, integrated PET image from 15 min to 30 min after administration (FIG. 4A, 4B). Here is the method:
Hydroxylation of 2,6-dideoxy-6-iodo-D-glucose and 6-iodo-6-deoxy-D-glucose was performed in the glass filter reactor as shown in FIG. 1. Sep-Pak cartridges were purchased from Waters. The cyclotron is OSCAR-12 (NKK/Oxford). The target gas consisted of 1.5% O2 in ^15N2. PET scans were obtained on Planar Positron Imaging System (Hamamatsu Photonics K.K.).
A solution of 2,6-dideoxy-6-iodo-D-glucose (274 mg, 1.0 mmol), tributyltin hydride (807 μl, 3.0 mmol) and AIBN (4.0 mg, 0.025 mmol) in PhCF3 (20.0 ml)/C10F18 (4.5 ml)/2-BuOH (3.0 ml) was placed in the reactor, which was on the automated synthetic apparatus (FIG. 3). Proton bombardment (beam current 50 μA) on target gas started (N2/O2=98.5/1.5, target gas pressure=6 kg/cm^2). The beginning of the bombardment was defined as 0 sec for convenience. Cold gas (N2/O2=[…], 180 ml/min) was provided and heating with temperature-controlled air (80° C.) started simultaneously at 2 min 40 sec. At 4.0 min, the target gas was evacuated from the targeting area in the cyclotron system (20 ml/min). The target gas was mixed with cold N2/O2 gas (target gas/N2/O2=20/177/3, 200 ml/min), and the resulting gas was then supplied to the reaction vessel. […] At 5 min 20 sec, the bombardment stopped. However, evacuation of the target gas continued. Triphenylphosphine (262 mg, 1.0 mmol in 1.5 ml of PhCF3) was added at 6.0 min. […]

Consider `O=CCC(O)C(O)C(O)C[15OH]` [[^15O]2-DG, ^15[O]2-deoxy-D-glucose], for which the “accumulation of tracer in integrated PET image” value is “accumulation of [^15O]2-DG in heart, kidney and bladder”.
